According to paper PMC5522529, “Mechanisms of Paradoxical Activation of AMPK by the Kinase Inhibitors SU6656 and Sorafenib” (Cell Chemical Biology, 2017):

What was measured:
[1] = system: LKB1 versus AMPK; parameters: method as in MRC Kinase Inhibitor Database; settings: ref MRC Kinase Inhibitor Database; cited from earlier work
[2] = biological target: T1, human AMPK-α2 Y436F mutant (Homo sapiens, UniProt P54646, Y436F); test: AMPK activity of FLAG-tagged Y436F AMPK-α2 expressed in HEK293 cells; assay type: cell-based; settings: SU6656 100 μM, phenformin 10 mM, A23187 10 μM, 1 hr
T1 construct: expressed in transfected cells; host or cells: HEK293 (transient transfection)
Description: (§1) Top: AMPK activity (mean ± SEM, n = 4); bottom: western blots showing phosphorylation of Thr172 on AMPK, and of ERK1/2, in cells treated with DMSO (control), SU6656 (100 μM), or PP2 (100 nM) (n = 2). (B) As (A), but in SYF cells. (C) HeLa cells were transfected with DNAs encoding GFP alone, or GFP fused to WT, Y261F/Y365F (FF), or Y36F/Y261F/Y365F (FFF) mutants of LKB1; cells were treated with increasing concentrations of SU6656 for 1 hr and AMPK activity determined (mean ± SEM, n = 4). See also Figure S1. (D) HEK293 cells were transfected with DNAs encoding FLAG-tagged AMPK-α2 with or without a Y436F mutation. Cells were incubated with DMSO (control), 100 μM SU6656, 10 mM phenformin, or 10 μM A23187 for 1 hr; AMPK complexes were immunoprecipitated using anti-FLAG antibody and assayed. The top panels show kinase activities (mean ± SD, n = 3); the bottom panels show blots from the same experiment (n = 2). In all panels, asterisks indicate significant differences from DMSO controls; in (D), there were no significant differences between the WT and Y463F mutant. **p < 0.01, ****p < 0.0001.

[3] = biological target: T2, AMPK-α1 AA mutant (Homo sapiens, UniProt Q13131, K40A/K42A); test: AMPK activity of FLAG-tagged AMPK-α1 K40A/K42A (AA) mutant expressed in HEK293 cells; assay type: cell-based; settings: AA mutant FLAG-α1; same concentrations, 1 hr
T2 construct: Plasmid encoding full-length human AMPK-α1; expressed in transfected cells; host or cells: HEK293
From the text: (§2) (B) Western blotting of the same preparations as in (A). […] (D) Allosteric activation of WT and mutant α1β1γ1 complexes by MT 63-78, curve fitting as for (C). […] (E) Allosteric activation of WT and mutant α1β1γ1 complexes by AMP. Data were fitted to the equation for activation/inactivation by AMP ([Gowans et al., 2013]). […] (F) Activation of WT and AA mutant by various AMPK activators in HEK293 cells. […] FLAG-tagged complexes were isolated by immunoprecipitation and AMPK activity determined (mean ± SEM, n = 2).
(§3) We next expressed the FLAG-tagged WT or AA mutant of AMPK-α1 by transient transfection in HEK293 cells, treated with various agents, and measured AMPK activity in anti-FLAG immunoprecipitates. In Figure 4F, the results are expressed as absolute activities and are accompanied by blots showing Thr172 phosphorylation.

[4] = biological target: T3, endogenous full-length α1 complexes (Homo sapiens, UniProt Q13131); test: Activity of endogenous full-length α1 complexes in HEK293 cells; assay type: cell-based; settings: 1 hr
T3 construct: endogenous in cells
From the text: (§4) We next expressed an FLAG-tagged α1 kinase domain (α1-KD, residues 1–312) by transient transfection in HEK293 cells, treated the cells with various AMPK activators, and then assayed both the expressed α1-KD (precipitated using anti-FLAG) and endogenous full-length α1 complexes (precipitated using anti-α1 antibodies recognizing an epitope outside the α1-KD). […] This was also observed with A23187, as expected since this ionophore increases intracellular Ca^2+ and activates the alternate upstream kinase CaMKK2.
(§5) The α1-KD was precipitated using anti-FLAG and endogenous AMPK complexes using anti-α1 antibody, and activity determined. Results (mean ± SD, n = 2) are expressed relative to activities in DMSO controls. (B) Western blots (n = 2) using the indicated antibodies; samples from experiment in (A). (C) DNAs encoding FLAG-tagged AMPK-α1 (WT or AT mutant) were expressed by transient transfection in HEK293 cells, the cells treated with increasing concentrations of SU6656 for 1 hr, AMPK complexes precipitated with anti-FLAG, and activity measured. Results (mean ± SD, n = 3) are expressed relative to the DMSO control. […] Results (mean ± SD, n = 3) are expressed relative to the DMSO control. **p < 0.01, ***p < 0.001, ****p < 0.0001, ^†††p < 0.001; ns, not significant.

[5] = biological target: T4, AMPK-α1 AT mutant (Homo sapiens, UniProt Q13131, A167T); test: AMPK activity of FLAG-tagged AMPK-α1 AT mutant expressed in HEK293 cells; assay type: cell-based; settings: AT mutant FLAG-α1, 1 hr
T4 construct: we expressed FLAG-tagged full-length AMPK-α1 either as the WT or the AT mutant; expressed in transfected cells; host or cells: HEK293 (transient transfection)
From the text: as §5
To confirm that it acted by binding at the catalytic site, we expressed FLAG-tagged full-length AMPK-α1 either as the WT or the AT mutant.

[6] = biological target: human AMPK-α2 (WT) (Homo sapiens, UniProt P54646); test: AMPK activity of FLAG-tagged WT AMPK-α2 expressed in HEK293 cells; assay type: cell-based; settings: SU6656 100 μM, phenformin 10 mM, A23187 10 μM, 1 hr
Description: as §1

[7] = biological target: T5, α1 kinase domain (α1-KD, residues 1–312) (Homo sapiens, UniProt Q13131); test: Activity of FLAG-tagged α1 kinase domain expressed in HEK293 cells; assay type: cell-based; settings: 1 hr
T5 construct: amplifying residues 1-312 with an N-terminal FLAG-tag; expressed in transfected cells; host or cells: HEK293 (transient transfection, pcDNA5 FRT)
From the text: as §4, §5
A plasmid encoding the AMPK-α2 kinase domain (α2-KD) was made by amplifying residues 1-310 with 5' BamH1 and 3' Xho1 sites, the resulting PCR product was cloned into pGEX6P2. Point mutations were generated using the Quikchange II site-directed mutagenesis kit (Stratagene) and confirmed by DNA sequencing.

[8] = biological target: T6, AMPK-α1 (WT) (Homo sapiens, UniProt Q13131); test: AMPK activity of FLAG-tagged AMPK-α1 (WT) expressed in HEK293 cells; assay type: cell-based; settings: 1 hr
T6 construct: we expressed FLAG-tagged full-length AMPK-α1 either as the WT or the AT mutant; expressed in transfected cells; host or cells: HEK293
From the text: as §2, §3
The α1-KD was precipitated using anti-FLAG and endogenous AMPK complexes using anti-α1 antibody, and activity determined. […] (B) Western blots (n = 2) using the indicated antibodies; samples from experiment in (A). (C) DNAs encoding FLAG-tagged AMPK-α1 (WT or AT mutant) were expressed by transient transfection in HEK293 cells, the cells treated with increasing concentrations of SU6656 for 1 hr, AMPK complexes precipitated with anti-FLAG, and activity measured.

T6 sequence (Q13131 whole entry): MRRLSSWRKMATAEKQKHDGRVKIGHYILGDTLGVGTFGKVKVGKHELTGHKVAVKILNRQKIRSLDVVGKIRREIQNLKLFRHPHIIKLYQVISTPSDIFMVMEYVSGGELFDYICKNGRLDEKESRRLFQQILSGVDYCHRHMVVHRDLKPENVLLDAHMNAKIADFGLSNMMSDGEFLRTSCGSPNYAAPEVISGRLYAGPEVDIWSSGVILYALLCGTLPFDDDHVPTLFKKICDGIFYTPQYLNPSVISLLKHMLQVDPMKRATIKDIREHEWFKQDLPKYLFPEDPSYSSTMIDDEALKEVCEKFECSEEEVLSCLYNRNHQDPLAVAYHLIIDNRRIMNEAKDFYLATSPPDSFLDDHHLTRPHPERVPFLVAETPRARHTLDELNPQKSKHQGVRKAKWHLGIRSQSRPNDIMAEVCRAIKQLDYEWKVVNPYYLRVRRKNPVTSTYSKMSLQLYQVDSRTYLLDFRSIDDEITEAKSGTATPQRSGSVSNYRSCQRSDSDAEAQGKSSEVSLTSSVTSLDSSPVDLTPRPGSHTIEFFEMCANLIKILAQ
T6 sequence (P54619 whole entry partner): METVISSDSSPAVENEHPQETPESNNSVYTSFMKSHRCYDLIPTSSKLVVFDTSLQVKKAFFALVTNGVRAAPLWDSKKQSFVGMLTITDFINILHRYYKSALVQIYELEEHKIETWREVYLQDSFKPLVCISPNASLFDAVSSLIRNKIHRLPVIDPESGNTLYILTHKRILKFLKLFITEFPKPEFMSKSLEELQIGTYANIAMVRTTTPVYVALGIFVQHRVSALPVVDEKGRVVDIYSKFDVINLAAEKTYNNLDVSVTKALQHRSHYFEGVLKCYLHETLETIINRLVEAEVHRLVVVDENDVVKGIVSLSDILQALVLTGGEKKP
T4 sequence (Q13131 whole entry A167T): as the sequence (Q13131 whole entry) above, with A167T counted along it
T4 sequence (P54619 whole entry partner): as the sequence (P54619 whole entry partner) above
Sequence of human AMPK-α2 (WT) (P54646 whole entry): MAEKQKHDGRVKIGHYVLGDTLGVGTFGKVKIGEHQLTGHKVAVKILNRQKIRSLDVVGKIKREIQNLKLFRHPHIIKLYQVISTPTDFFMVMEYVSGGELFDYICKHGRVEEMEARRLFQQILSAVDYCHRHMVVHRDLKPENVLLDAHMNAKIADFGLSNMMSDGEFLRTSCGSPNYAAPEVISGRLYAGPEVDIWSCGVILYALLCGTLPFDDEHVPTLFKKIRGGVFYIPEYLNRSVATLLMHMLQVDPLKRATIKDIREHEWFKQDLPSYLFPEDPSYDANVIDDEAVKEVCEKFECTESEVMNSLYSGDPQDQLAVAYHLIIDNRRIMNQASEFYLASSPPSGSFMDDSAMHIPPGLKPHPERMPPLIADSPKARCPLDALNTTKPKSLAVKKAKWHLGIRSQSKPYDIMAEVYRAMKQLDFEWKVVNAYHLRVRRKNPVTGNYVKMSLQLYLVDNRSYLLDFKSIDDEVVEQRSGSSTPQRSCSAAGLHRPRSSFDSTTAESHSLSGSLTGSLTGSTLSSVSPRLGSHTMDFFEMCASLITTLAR
Sequence of human AMPK-α2 (WT) (P54619 whole entry partner): as the sequence (P54619 whole entry partner) above
T2 sequence (Q13131 whole entry K40A/K42A): as the sequence (Q13131 whole entry) above, with K40A, K42A counted along it
T2 sequence (P54619 whole entry partner): as the sequence (P54619 whole entry partner) above
T5 sequence (Q13131 1-312): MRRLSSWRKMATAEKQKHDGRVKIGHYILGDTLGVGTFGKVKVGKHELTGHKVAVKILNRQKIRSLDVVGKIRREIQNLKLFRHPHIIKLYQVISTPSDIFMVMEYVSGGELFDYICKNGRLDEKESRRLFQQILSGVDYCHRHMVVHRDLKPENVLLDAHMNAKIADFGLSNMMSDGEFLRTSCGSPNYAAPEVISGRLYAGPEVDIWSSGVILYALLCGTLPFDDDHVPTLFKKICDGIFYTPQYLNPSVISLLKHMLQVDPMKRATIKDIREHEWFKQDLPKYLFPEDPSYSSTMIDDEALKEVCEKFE
T1 sequence (P54646 whole entry Y436F): as the sequence (P54646 whole entry) above, with Y436F counted along it
T1 sequence (P54619 whole entry partner): as the sequence (P54619 whole entry partner) above
T3 sequence (Q13131 whole entry): as the sequence (Q13131 whole entry) above
T3 sequence (P54619 whole entry partner): as the sequence (P54619 whole entry partner) above

c1cc(-c2cnn3cc(-c4ccc(OCCN5CCCCC5)cc4)cnc23)ccn1 [compound C]
potency of LKB1 inhibition relative to AMPK inhibition [1]: inhibit LKB1 with similar potency to AMPK

[H]/N=C(/N)N/C(=N/[H])NCCc1ccccc1 [phenformin]
AMPK activation response with Y436F mutation [2]: unaffected by the Y436F mutation
effect of AA mutation on AMPK activation [3]: abolished
kinase activity / Thr172 phosphorylation [4]: doing this with the endogenous complexes
AMPK activity [5]: activated equally well
AMPK activity in anti-FLAG immunoprecipitates [6]: all activated AMPK
kinase activity / Thr172 phosphorylation [7]: failed to activate or cause Thr172 phosphorylation
AMPK activity ([8]; WT FLAG-α1 (comparison with AT mutant)): activated equally well
AMPK activity and Thr172 phosphorylation ([8]; WT FLAG-α1, A769662 300 μM, berberine 300 μM, phenformin 10 mM, troglitazone 100 μM, oligomycin 1 μM, SU6656 100 μM): activated AMPK and caused Thr172 phosphorylation
